Assay results reported in ChEMBL document CHEMBL1133772, “In vitro and in vivo evaluation of dihydropyrimidinone C-5 amides as potent and selective alpha(1A) receptor antagonists for the treatment of benign prostatic hyperplasia” (J Med Chem, 2000).

Key:
[1] = Bioavailability in rat; assay type: ADME, organism-based; conditions: in vivo
[2] = biological target: T1, Alpha-1D adrenergic receptor (Homo sapiens, UniProt P25100); experiment: Evaluated for the ability to displace [125I]- HEAT from human cloned Alpha-1D adrenergic receptor stably expressed in HEK cells.; assay type: cell-based, HEK293
T1 sequence (P25100 whole entry): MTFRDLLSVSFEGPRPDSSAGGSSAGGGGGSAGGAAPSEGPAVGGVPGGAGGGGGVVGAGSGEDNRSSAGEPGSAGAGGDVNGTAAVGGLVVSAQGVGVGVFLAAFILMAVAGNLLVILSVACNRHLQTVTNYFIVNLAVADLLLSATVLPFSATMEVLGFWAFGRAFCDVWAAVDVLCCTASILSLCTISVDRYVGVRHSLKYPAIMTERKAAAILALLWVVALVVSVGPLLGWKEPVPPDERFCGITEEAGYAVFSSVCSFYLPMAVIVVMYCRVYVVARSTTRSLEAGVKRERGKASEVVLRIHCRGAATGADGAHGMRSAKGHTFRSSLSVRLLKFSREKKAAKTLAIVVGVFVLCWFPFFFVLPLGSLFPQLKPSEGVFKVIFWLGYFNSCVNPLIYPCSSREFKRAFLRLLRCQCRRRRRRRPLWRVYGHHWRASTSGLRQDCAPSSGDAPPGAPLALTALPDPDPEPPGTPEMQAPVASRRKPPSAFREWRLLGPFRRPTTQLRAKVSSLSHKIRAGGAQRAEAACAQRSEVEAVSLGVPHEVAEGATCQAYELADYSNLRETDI

[3] = biological target: T2, Alpha-1A adrenergic receptor (Homo sapiens, UniProt P35348); experiment: Evaluated for the ability to displace [125I]- HEAT from human cloned Alpha-1A adrenergic receptor stably expressed in CHO cells.; assay type: cell-based
T2 sequence (P35348 whole entry): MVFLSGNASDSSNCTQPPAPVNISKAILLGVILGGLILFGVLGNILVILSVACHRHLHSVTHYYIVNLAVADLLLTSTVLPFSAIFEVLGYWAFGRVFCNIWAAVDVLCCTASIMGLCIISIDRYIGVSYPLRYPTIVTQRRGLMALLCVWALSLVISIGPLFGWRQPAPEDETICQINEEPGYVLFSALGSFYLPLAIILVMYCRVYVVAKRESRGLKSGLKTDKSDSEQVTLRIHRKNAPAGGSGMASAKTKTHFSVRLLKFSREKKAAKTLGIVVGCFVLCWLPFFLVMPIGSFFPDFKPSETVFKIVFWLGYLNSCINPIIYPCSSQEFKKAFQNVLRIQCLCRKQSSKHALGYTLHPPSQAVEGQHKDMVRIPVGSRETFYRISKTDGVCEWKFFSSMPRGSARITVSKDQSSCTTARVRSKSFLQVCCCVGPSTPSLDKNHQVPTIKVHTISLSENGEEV

[4] = biological target: T3, Alpha-1B adrenergic receptor (Homo sapiens, UniProt P35368); experiment: Evaluated for the ability to displace [125I]- HEAT from human cloned Alpha-1B adrenergic receptor stably expressed in LM cells.; assay type: cell-based
T3 sequence (P35368 whole entry): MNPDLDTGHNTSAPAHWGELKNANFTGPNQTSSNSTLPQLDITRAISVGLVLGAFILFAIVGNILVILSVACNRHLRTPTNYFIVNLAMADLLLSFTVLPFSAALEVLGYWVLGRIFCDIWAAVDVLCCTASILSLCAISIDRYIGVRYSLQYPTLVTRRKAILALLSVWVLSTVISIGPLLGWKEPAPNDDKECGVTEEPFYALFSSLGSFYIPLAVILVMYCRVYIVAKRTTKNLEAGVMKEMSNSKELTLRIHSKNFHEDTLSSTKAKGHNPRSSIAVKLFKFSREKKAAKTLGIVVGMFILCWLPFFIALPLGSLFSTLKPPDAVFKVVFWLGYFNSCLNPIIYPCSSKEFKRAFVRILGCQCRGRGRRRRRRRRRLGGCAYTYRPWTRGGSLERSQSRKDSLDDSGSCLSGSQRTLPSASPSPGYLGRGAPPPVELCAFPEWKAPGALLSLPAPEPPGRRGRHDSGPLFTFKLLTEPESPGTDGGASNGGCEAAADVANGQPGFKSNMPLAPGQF

Rattus norvegicus [5] = species: Rattus norvegicus; experiment: Evaluated for the inhibition of A61603-induced prostate contraction in rat; assay type: functional, Prostate gland
Rattus norvegicus [6] = species: Rattus norvegicus; experiment: Duration of action with repeated challenges of A61603 agonist in rat; assay type: functional; note: test concentration or dose not given here
[7] = t1/2 in rat; assay type: ADME, organism-based; conditions: in vivo
[8] = biological target: T1, Alpha-1D adrenergic receptor; experiment: Ability to displace [125I]- HEAT from human cloned Alpha-1D adrenergic receptor stably expressed in HEK cells.; assay type: cell-based, HEK293
[9] = biological target: T3, Alpha-1B adrenergic receptor; experiment: Ability to displace [125I]- HEAT from human cloned Alpha-1B adrenergic receptor stably expressed in LM cells.; assay type: cell-based
[10] = biological target: T2, Alpha-1A adrenergic receptor; experiment: Ability to displace [125I]- HEAT from human cloned Alpha-1A adrenergic receptor stably expressed in CHO cells.; assay type: cell-based
Canis familiaris [11] = species: Canis familiaris; experiment: Compound was evaluated for the inhibition of phenylephrine-induced contraction in dog.; assay type: functional, Canis lupus familiaris
Canis familiaris [12] = species: Canis familiaris; experiment: Dose effecting a 20 mmHg change in diastolic blood pressure in dog.; assay type: functional, Canis lupus familiaris, Artery

Row | bioavailability [1] [%] | Ki [2] [nM] | Ki [3] [nM] | Ki [4] [nM] | half-life [7] [min] | Ki [8] [nM] | Ki [9] [nM] | Ki [10] [nM] | SMILES | AD50 (Rattus norvegicus [5]) [µg/kg] | Duration (Rattus norvegicus [6]) [h] | AD50 (Canis familiaris [11]) [µg/kg] | DBP-20 (Canis familiaris [12]) [µg/kg]
1 | 0 | 810 | 0.17 | 140 | 140 | – | – | – | N#CC1(c2ccc(F)cc2)CCN(CCCNC(=O)C2=CNC(=O)N[C@@H]2c2ccc(F)c(F)c2)CC1 | 7 | 0.75 | – | –
2 | 0 | 630 | 0.18 | 440 | < 60 | – | – | – | CN1C=C(C(=O)NCCCN2CCC(C#N)(c3ccc(F)cc3C#N)CC2)[C@@H](c2ccc(F)c(F)c2)NC1=O | 4 | 3.5 | – | –
3 | 0 | > 5000 | 2.6 | > 2000 | 42 | – | – | – | CC1=C(C(=O)NCCCN2CCC(c3ccccn3)CC2)[C@@H](c2ccc(F)c(F)c2)NC(=O)N1 | 2.3 | 0.5 | – | –
4 | < 6 | 285 | 0.42 | 285 | 108 | – | – | – | COCC1=C(C(=O)NCCCN2CCC(c3ccccc3C#N)CC2)[C@@H](c2ccc(F)c(F)c2)NC(=O)N1 | 7 | 0.6 | – | –
5 | – | – | 20 | 110 | – | 600 | – | – | CC1=C(C(=O)NCCCN2CCC(c3ccc(F)cc3)CC2)[C@H](c2ccc(F)c(F)c2)NC(=O)N1C | – | – | – | –
6 | < 6 | 260 | 0.14 | 35 | 175 | – | – | – | COCC1=C(C(=O)NCCCN2CCC(c3ccc(F)cc3C#N)CC2)[C@@H](c2ccc(F)c(F)c2)NC(=O)N1 | 2.8 | 1.5 | – | –
7 | 8 | – | – | – | 72 | 710 | 320 | 2.3 | CN1C=C(C(=O)NCCCN2CCC(C#N)(c3ccc(F)cc3)CC2)[C@H](c2ccc(F)c(F)c2)NC1=O | 145 | – | – | –
8 | < 6 | 2200 | 0.39 | 1100 | 45 | – | – | – | CC1=C(C(=O)NCCCN2CCC(C#N)(c3ccc(F)cc3)CC2)[C@@H](c2ccc(F)c(F)c2)NC(=O)N1C | 21 | 1.5 | – | –
9 | 0 | 69 | 0.068 | 7.9 | 48 | – | – | – | CN1C=C(C(=O)NCCCN2CCC(c3ccc(F)cc3C#N)CC2)[C@@H](c2ccc(F)c(F)c2)NC1=O | 5 | 4 | – | –
10 | – | 1200 | – | 270 | – | – | – | 19 | O=C1NC(C(F)(F)F)=C(C(=O)NCCCN2CCC(c3ccc(F)cc3)CC2)[C@@H](c2ccc(F)c(F)c2)N1 | – | – | – | –
11 | – | > 3000 | 2.5 | 1850 | – | – | – | – | O=C1NC=C(C(=O)NCCCN2CCC(c3ccccn3)CC2)[C@@H](c2ccc(F)c(F)c2)N1 | – | – | – | –
12 | 17 | – | – | – | 138 | 200 | 20 | 0.18 | CC1=C(C(=O)NCCCN2CCC(c3ccc(F)cc3)CC2)[C@@H](c2ccc(F)c(F)c2)N(C)C(=O)N1C | 9 | 1 | – | –
13 | < 6 | – | – | – | 72 | 590 | 120 | 0.18 | CC1=C(C(=O)NCCCN2CCC(c3ccc(F)cc3)CC2)[C@@H](c2ccc(F)c(F)c2)NC(=O)N1C | 20 | 2.5 | – | –
14 | – | 230 | 2.2 | 33 | – | – | – | – | CC(=O)N1C(=O)N(C)C(C)=C(C(=O)NCCCN2CCC(c3ccc(F)cc3)CC2)[C@H]1c1ccc(F)c(F)c1 | – | – | – | –
15 | – | 120 | 0.14 | 4.8 | – | – | – | – | CC1=C(C(=O)NCCCN2CCC(c3ccc(F)cc3)CC2)[C@@H](c2ccc(F)c(F)c2)N(C)C(=O)N1 | – | – | – | –
16 | 0 | 160 | 0.13 | 290 | 43 | – | – | – | N#Cc1ccccc1C1CCN(CCCNC(=O)C2=CNC(=O)N[C@@H]2c2ccc(F)c(F)c2)CC1 | 1.5 | 0.5 | – | –
17 | 0 | 2400 | 0.16 | 970 | 45 | – | – | – | N#Cc1ccccc1C1(C#N)CCN(CCCNC(=O)C2=CNC(=O)N[C@@H]2c2ccc(F)c(F)c2)CC1 | 3 | 1 | – | –
18 | – | > 5000 | 500 | > 2000 | – | – | – | – | O=C1NC(C(F)(F)F)=C(C(=O)NCCCN2CCC(c3ccccn3)CC2)[C@@H](c2ccc(F)c(F)c2)N1 | – | – | – | –
19 | 0 | > 4000 | 0.6 | > 2000 | 24 | – | – | – | CC1=C(C(=O)NCCCN2CCC(C#N)(c3ccc(F)cc3C#N)CC2)[C@@H](c2ccc(F)c(F)c2)NC(=O)N1C | 5 | 1 | – | –
20 | < 6 | – | – | – | 66 | 240 | 53 | 0.12 | CN1C=C(C(=O)NCCCN2CCC(C#N)(c3ccc(F)cc3)CC2)[C@@H](c2ccc(F)c(F)c2)NC1=O | 14 | 4 | – | –
21 | 0 | 215 | 0.17 | 87 | 25 | – | – | – | CC1=C(C(=O)NCCCN2CCC(c3ccc(F)cc3C#N)CC2)[C@@H](c2ccc(F)c(F)c2)NC(=O)N1 | 1.5 | 1.5 | 5 | >300
22 | – | 220 | 20 | 700 | – | – | – | – | N#Cc1ccccc1C1CCN(CCCNC(=O)C2=C(C(F)(F)F)NC(=O)N[C@@H]2c2ccc(F)c(F)c2)CC1 | – | – | – | –
23 | – | 170 | 0.75 | 25 | – | – | – | – | COC(=O)N1C(=O)N(C)C(C)=C(C(=O)NCCCN2CCC(c3ccc(F)cc3)CC2)[C@H]1c1ccc(F)c(F)c1 | – | – | – | –
24 | – | – | – | – | – | 410 | 85 | 11 | CC1=C(C(=O)NCCCN2CCC(c3ccc(F)cc3)CC2)[C@H](c2ccc(F)c(F)c2)N(C)C(=O)N1C | – | – | – | –
25 | < 6 | 250 | 0.3 | 72 | 15 | – | – | – | CN1C=C(C(=O)NCCCN2CCC(C#N)(c3ccc(F)cc3C#N)CC2)[C@@H](c2ccc(F)c(F)c2)N(C)C1=O | 13 | 3 | – | –
26 | 0 | 62 | 0.07 | 26 | 174 | – | – | – | N#Cc1cc(F)ccc1C1CCN(CCCNC(=O)C2=CNC(=O)N[C@@H]2c2ccc(F)c(F)c2)CC1 | 1.8 | 2 | – | –
27 | – | 270 | 4.2 | 200 | – | – | – | – | N#Cc1cc(F)ccc1C1CCN(CCCNC(=O)C2=C(C(F)(F)F)NC(=O)N[C@@H]2c2ccc(F)c(F)c2)CC1 | – | – | – | –

Row | SMILES | bioavailability [1] [%] | Ki [2] [nM] | Ki [3] [nM] | Ki [4] [nM] | half-life [7] [min] | Ki [8] [nM] | Ki [9] [nM] | Ki [10] [nM] | AD50 (Rattus norvegicus [5]) [µg/kg] | Duration (Rattus norvegicus [6]) [h] | AD50 (Canis familiaris [11]) [µg/kg] | DBP-20 (Canis familiaris [12]) [µg/kg]
28 | O=C1NC=C(C(=O)NCCCN2CCC(O)(c3ccc(F)cc3)CC2)[C@@H](c2ccc(F)c(F)c2)N1 | 0 | 880 | 0.91 | 160 | 37 | – | – | – | 1.2 | 0.5 | – | –
